System: spontaneous intestinal adenoma formation
Assay: C57BL/6J-APC Min-mouse model of human adenomatous polyposis coli
Assay type: in vivo, C57BL/6J-Apc min mice
Settings: 100 mg/kg orally q.d., versus vehicle-treated group
Procedure: The ability of Compound 50 to inhibit angiogenesis and tumor growth was tested in a spontaneous tumor model. the pre-cancerous polyp formation in the mouse model of human intestinal tumorigenesis.
Transgenic C57BL/6J-Apc min mice heterozygous for a dominant nonsense Apc mutation are highly susceptible to spontaneous intestinal adenoma formation (homozygous mice are not viable). One hundred percent of these animals will develop polyps by 12 weeks of age. This model is widely used for studying prevention of intestinal adenoma formation and is well described in the literature (Yang K, Edelmann W, Fan K, et. al. A mouse model of human familial adenomatous polyposis. J Exp Zool. 1997 15; 277(3):245-54).
Female C57BL/6J-Apc^Min mice (Jackson Laboratory, MN), 5 weeks of age, were housed (up to 10 mice per group) for a minimum of one week. Animals were then sorted into treatment groups based on body weight such that the mean body weight for the animals in each group was approximately the same. Small cohorts of animals (n=6) were sacrificed at day 1, before treatment to get a baseline number of polyps (mean polyp number at beginning of study). […]
Animals in the treated group (n=10) were dosed daily with Compound 50 at 100 mg/kg orally q.d. for one week. […] The intestine of each mouse was excised, perfused, stained (0.01% Trypan Blue) and polyps were counted under 10× magnification.

1-{4-[6-amino-5-(methoxyimino-methyl)-pyrimidin-4-yloxy]-2-chloro-phenyl}-3-ethyl-urea [Cpd 50]
body weights at study end: comparable
